One assay has as its system T. cruzi. The assay can be described thus: T. cruzi growth inhibition. The assay is classed as cell-based, Trypanosoma cruzi. As to conditions: read-out: (E) T. cruzi EC50.
The target of a further assay is MetRS (C. parvum) (Cryptosporidium parvum, UniProt Q5CVN0). The assay can be described thus: MetRS (C. parvum) enzyme inhibition. Format: biochemical. Conditions: read-out: (C) MetRS (C. parvum) IC50.
The target of the next assay is T1, MetRS (T. brucei) (Trypanosoma brucei brucei, UniProt Q38C91).
T1 sequence (Q38C91 1-773): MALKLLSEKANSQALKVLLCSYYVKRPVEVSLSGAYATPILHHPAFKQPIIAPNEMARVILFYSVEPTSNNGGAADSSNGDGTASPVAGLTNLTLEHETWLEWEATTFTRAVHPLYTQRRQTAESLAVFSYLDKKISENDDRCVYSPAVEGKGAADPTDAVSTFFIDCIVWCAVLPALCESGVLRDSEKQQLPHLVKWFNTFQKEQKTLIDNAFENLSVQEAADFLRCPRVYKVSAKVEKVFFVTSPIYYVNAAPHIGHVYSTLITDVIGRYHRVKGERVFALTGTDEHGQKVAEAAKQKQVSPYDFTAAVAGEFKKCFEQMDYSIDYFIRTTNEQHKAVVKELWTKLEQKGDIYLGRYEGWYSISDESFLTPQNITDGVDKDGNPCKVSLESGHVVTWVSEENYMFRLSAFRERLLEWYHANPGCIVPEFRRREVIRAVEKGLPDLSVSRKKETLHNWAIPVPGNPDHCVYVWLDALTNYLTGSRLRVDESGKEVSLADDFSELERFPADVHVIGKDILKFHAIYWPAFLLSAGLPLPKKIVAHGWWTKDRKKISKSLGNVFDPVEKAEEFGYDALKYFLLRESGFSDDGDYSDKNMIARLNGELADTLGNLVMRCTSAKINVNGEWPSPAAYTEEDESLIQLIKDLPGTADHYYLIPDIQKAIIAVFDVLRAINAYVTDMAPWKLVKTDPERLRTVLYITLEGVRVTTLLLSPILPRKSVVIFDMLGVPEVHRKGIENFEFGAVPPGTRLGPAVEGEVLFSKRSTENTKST
The assay can be described thus: MetRS (T. brucei) enzyme inhibition. Format: biochemical.

In another assay the test system is T. brucei. The assay can be described thus: T. brucei growth inhibition. As to conditions: Trypanosoma brucei; read-out: (D) T. brucei EC50. The assay is classed as cell-based, Trypanosoma brucei.
Assay [1] concerns S. aureus MSSA (ATCC 29213). Briefly: MIC susceptibility testing. Format: cell-based, Staphylococcus aureus. As to conditions: S. aureus ATCC 29213; for MIC: Staphylococcus aureus, read-out: (F) S. aureus (ATCC 29213) MIC. The text has this:
Media and culture conditions. Mueller Hinton broth (MHB), cation adjusted Mueller Hinton broth (CA-MHB), and Brain Heart Infusion broth (BHI) were purchased from Becton Dickinson (Franklin Lakes, N.J.). Tryptic soy agar (TSA) plates, TSA with 5% sheep blood plates, and CA-MHB with 3% laked horse blood were purchased from Remel (San Diego, Calif.). MHB was used to assay all Staphylococcus aureus strains. CA-MHB was used for Staphylococcus epidermidis, Enterococcus faecalis, Enterococcus faecium, Escherichia coli, and Pseudomonas aeruginosa. CA-MHB supplemented with 3% laked horse blood was used for Streptococcus pneumoniae and Streptococcus pyogenes. Staphylococcus, Enterococcus, Escherichia, and Pseudomonas strains were cultured at 37° C. with ambient air. Streptococcus strains were cultured in 37° C. with 5% CO2. Separate conditions for radiolabeled precursor uptake assays are described below.
Susceptibility testing: Minimum inhibitory concentration (MIC) determinations were performed in triplicate in 96-well round bottom microtiter plates (Corning, Corning N.Y.) as described by the Clinical and Laboratory Standards Institute (CLSI). Serial two-fold dilutions of compounds were added to plates in 50 μL volumes. An additional 50 μL of media containing bacterial cells (1×10^6 CFUs/mL) was then added to each well. Maximum DMSO concentrations were 0.5%. Plates were incubated at 37° C. for at least 18 h before reading the susceptibility result by optical absorbance (OD600) using a BioTek ELx800. The lowest concentration causing ≥90% growth inhibition compared to the untreated control was recorded as the MIC (and also corresponded to the visual MIC). MICs were measured at least twice and the higher value (if different) was recorded herein.

In brackets after ≈: the same amount, converted by molar mass. Several values for one entry are separate records, joined by “and”; a condition that tells them apart may be missing. Identical values can stand only once. Like-named read-outs stand apart in the source and are kept apart here.

MetRS (C. parvum), sequence (Q5CVN0 entry or part of it): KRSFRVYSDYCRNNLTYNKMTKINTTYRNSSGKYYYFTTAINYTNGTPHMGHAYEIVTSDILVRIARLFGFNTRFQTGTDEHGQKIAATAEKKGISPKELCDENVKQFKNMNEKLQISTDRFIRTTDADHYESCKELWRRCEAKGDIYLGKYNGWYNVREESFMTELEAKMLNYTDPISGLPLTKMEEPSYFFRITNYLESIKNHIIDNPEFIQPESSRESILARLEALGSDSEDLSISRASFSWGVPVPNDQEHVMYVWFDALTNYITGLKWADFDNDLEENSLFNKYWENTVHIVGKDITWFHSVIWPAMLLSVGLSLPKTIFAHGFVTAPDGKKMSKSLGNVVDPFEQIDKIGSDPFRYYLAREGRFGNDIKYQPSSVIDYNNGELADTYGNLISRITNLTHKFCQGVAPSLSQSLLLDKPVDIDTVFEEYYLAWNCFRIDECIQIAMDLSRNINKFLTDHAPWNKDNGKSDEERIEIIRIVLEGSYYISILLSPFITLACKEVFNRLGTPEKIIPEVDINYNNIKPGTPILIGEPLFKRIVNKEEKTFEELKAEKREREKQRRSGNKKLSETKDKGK

For the compound `CCn1cc(-c2ccc(OC)cc2Cl)c2c1CCN(Cc1nc3nc(Cl)ccc3[nH]1)C2` [Compound 2177, 5-chlor0-2-((3-(2-chloro-4-methoxyphenyl)-1-ethyl-6,7-dihydro-1H-pyrrolo[3,2-c]pyridin-5(4H)-yl)methyl)-1H-imidazo[4,5-b]pyridine], the EC50 (as a rule, the concentration giving half of the maximal effect) in the assay on T. cruzi (Trypanosoma cruzi) amounted to 409 nM; in the assay on T. brucei, 92.5 nM. The IC50 on MetRS (C. parvum) and against MetRS (T. brucei) was below 40 nM each time.
On to `CCn1c(Cc2ccc(Cl)cc2Cl)cn(Cc2nc3ccccc3[nH]2)c1=O` [Compound 2068, 1-[(1H-1,3-benzodiazol-2-yl)methyl]-4-[(2,4-dichlorophenyl)methyl]-3-ethyl-2,3-dihydro-1H-imidazol-2-one], for which the results for the concentration for a half-maximal effect (EC50) in the assay on T. cruzi (Trypanosoma cruzi) and with T. brucei were 1000 nM and 40.2 nM, respectively. The IC50 at MetRS (C. parvum) and on MetRS (T. brucei) was below 40 nM in each case.
In the case of `CCNC(=O)Nc1ccc(-c2ccc(OC)cc2Cl)n2cc(Cc3nc4ccc(Cl)cc4[nH]3)nc12` [Compound 2182, 1-{2-[(6-chloro-1H-1,3-benzodiazol-2-yl)methyl]-5-(2-chloro-4-methoxyphenyl)imidazo[1,2-a]pyridin-8-yl}-3-ethylurea], the concentration for a half-maximal effect (EC50) with T. cruzi (Trypanosoma cruzi) turned out to be 647 nM; in the assay with T. brucei it was 84 nM. In addition, the figures for the 50% inhibitory concentration (IC50) at MetRS (C. parvum) and at MetRS (T. brucei) were 42.1 nM and below 40 nM, respectively.
For `O=c1n(Cc2nc3ccc(F)nc3[nH]2)cc(Cc2ccc(Cl)cc2Cl)n1C1CCCC1` [Compound 2081, 3-cyclopentyl-4-[(2,4-dichlorophenyl)methyl]-1-({5-fluoro-1H-imidazo[4,5-b]pyridin-2-yl}methyl)-2,3-dihydro-1H-imidazol-2-one], in the assay with T. cruzi (Trypanosoma cruzi), the EC50 amounted to 438 nM. The concentration for half-maximal inhibition (IC50) at MetRS (C. parvum) and on MetRS (T. brucei) was below 40 nM in each case. For the same compound, in assay [1], the MIC (as a rule, the smallest concentration in the dilution series that meets the test's criterion for growth inhibition) is 1.33 µg/mL (≈ 2.89 µM).
Regarding `CCn1c(Cc2ccc(Cl)cc2Cl)cn(Cc2nc3ccc(F)nc3[nH]2)c1=S` [Compound 2103, 4-[(2,4-dichlorophenyl)methyl]-3-ethyl-1-({5-fluoro-1H-imidazo[4,5-b]pyridin-2-yl}methyl)-2,3-dihydro-1H-imidazole-2-thione], the half-maximal effective concentration (EC50) turned out to be 2930 nM with T. cruzi (Trypanosoma cruzi) and 113 nM in the assay on T. brucei. For the same compound, the IC50 (commonly the midpoint of a concentration-inhibition curve) was 175 nM on MetRS (C. parvum) and 63 nM against MetRS (T. brucei).
Take `COc1ccc(-c2cnc(NC(C)=O)c3nc(Cc4nc5nc(Cl)ccc5[nH]4)cn23)c(Cl)c1` [Compound 2186, N-[2-({5-chloro-1H-imidazo[4,5-b]pyridin-2-yl}methyl)-5-(2-chloro-4-methoxyphenyl)imidazo[1,2-a]pyrazin-8-yl]acetamide]: the EC50 was determined as 360 nM in the assay on T. cruzi (Trypanosoma cruzi) and 25 nM in the assay with T. brucei. Further, the IC50 on MetRS (C. parvum) is 49.2 nM; at MetRS (T. brucei), 59 nM. For the same compound, the “(F) S. aureus (ATCC 29213) MIC” value in assay [1] was found to be 3.21 µg/mL. Moreover, the MIC in assay [1] turned out to be 3.8 µg/mL (≈ 7.88 µM).
For the compound `CC(C)(C)n1c(Cc2ccc(Cl)cc2Cl)cn(Cc2nc3ccc(F)nc3[nH]2)c1=O` [Compound 2084, 3-tert-butyl-4-[(2,4-dichlorophenyl)methyl]-1-({5-fluoro-1H-imidazo[4,5-b]pyridin-2-yl}methyl)-2,3-dihydro-1H-imidazol-2-one], the EC50 in the assay with T. cruzi (Trypanosoma cruzi) was determined as 608 nM. Also, the IC50 at MetRS (C. parvum) and at MetRS (T. brucei) was below 40 nM throughout. Further, the minimum inhibitory concentration (MIC) in assay [1] is 2.04 µg/mL (≈ 4.55 µM).
As for `COc1ccc(-c2cnc(N)c3nc(Cc4nc5nc(Cl)ccc5[nH]4)cn23)c(Cl)c1` [Compound 2175, 2-({5-chloro-1H-imidazo[4,5-b]pyridin-2-yl}methyl)-5-(2-chloro-4-methoxyphenyl)imidazo[1,2-a]pyrazin-8-amine], the EC50 in the assay with T. cruzi (Trypanosoma cruzi) came to 681 nM; in the assay with T. cruzi, 638 nM. The concentration for half-maximal inhibition (IC50) was 41.7 nM at MetRS (C. parvum); 72 nM and < 40 nM against MetRS (T. brucei).
For the compound `O=c1[nH]c(C(O)c2ccc(Cl)cc2Cl)cn1Cc1nc2nc(Cl)ccc2[nH]1` (stereo not drawn) [Compound 2202, 1-({5-chloro-1H-imidazo[4,5-b]pyridin-2-yl}methyl)-4-[(2,4-dichlorophenyl)(hydroxy)methyl]-2,3-dihydro-1H-imidazol-2-one], the concentration for a half-maximal effect (EC50) in the assay on T. cruzi (Trypanosoma cruzi) came to 2710 nM; in the assay on T. brucei it was 45.3 nM. Further, the IC50 on MetRS (C. parvum) was 213 nM; at MetRS (T. brucei), 55 nM. Besides, in assay [1], the “(F) S. aureus (ATCC 29213) MIC” value amounted to 13.2 µg/mL. The MIC in assay [1] is above 10 µg/mL.
Regarding `Fc1ccc2nc(Cn3cc(Cc4ccc(Cl)cc4Cl)[nH]c3=S)[nH]c2n1` [Compound 2056, 5-(2,4-dichlorobenzyl)-3-((5-fluoro-3H-imidazo[4,5-b]pyridin-2-yl)methyl)-1H-imidazole-2(3H)-thione], the concentration for a half-maximal effect (EC50) with T. cruzi (Trypanosoma cruzi) was 3720 nM; in the assay on T. brucei it was 242 nM. The IC50 at MetRS (C. parvum) was 195 nM; against MetRS (T. brucei), below 40 nM.
For `O=C(O)Cn1c(C(O)c2ccc(Cl)cc2Cl)cn(Cc2nc3ccc(Cl)nc3[nH]2)c1=O` (stereo not drawn) [Compound 2218, 2-(3-((5-chloro-3H-imidazo[4,5-b]pyridin-2-yl)methyl)-5((2,4-dichlorophenyl)(hydroxy)methyl)-2-oxo-2,3-dihydro-1H-imidazol-1-yl)acetic acid] the same measures were above 5000 nM, 718 nM, 40.1 nM and below 40 nM.
Taken in the same sequence, the figures for `CSc1nc(Cc2ccc(Cl)cc2Cl)cn1Cc1nc2ccc(F)nc2[nH]1` [Compound 2104, 4-[(2,4-dichlorophenyl)methyl]-1-({5-fluoro-1H-imidazo[4,5-b]pyridin-2-yl}methyl)-2-(methylsulfanyl)-1H-imidazole] were 1480 nM, 73.4 nM, 40.3 nM and below 40 nM.
For the compound `CCn1c(Cc2ccc(Cl)cc2Cl)cn(Cc2nc3ccc(C)nc3[nH]2)c1=O` [Compound 2092, 4-[(2,4-dichlorophenyl)methyl]-3-ethyl-1-({5-methyl-1H-imidazo[4,5-b]pyridin-2-yl}methyl)-2,3-dihydro-1H-imidazol-2-one], the concentration giving a half-maximal response (EC50) in the assay on T. cruzi (Trypanosoma cruzi) amounted to 502 nM. Moreover, the IC50 at MetRS (C. parvum) was 47.5 nM; at MetRS (T. brucei), below 40 nM. Besides, in assay [1], the minimum inhibitory concentration (MIC) was above 2.5 µg/mL.
As for `Clc1cc(Cl)cc(-c2cccc3nc(Cc4nc5nc(Cl)ccc5[nH]4)cn23)c1` [Compound 2130, 2-({5-chloro-1H-imidazo[4,5-b]pyridin-2-yl}methyl)-5-(3,5-dichlorophenyl)-imidazo[1,2-a]pyridine], the 50% inhibitory concentration (IC50) was above 1000 nM at MetRS (C. parvum) and 190 nM on MetRS (T. brucei). In addition, the EC50 in the assay on T. brucei was 196 nM.
As to `CSc1nc(Cc2ccc(Cl)cc2Cl)cn1Cc1nc2nc(Cl)ccc2[nH]1` [Compound 2109, 1-({5-chloro-1H-imidazo[4,5-b]pyridin-2-yl}methyl)-4-[(2,4-dichlorophenyl)methyl]-2-(methylsulfanyl)-1H-imidazole], the 50% effective concentration (EC50) in the assay on T. cruzi (Trypanosoma cruzi) turned out to be 329 nM; with T. brucei, 53.5 nM. Further, the IC50 on MetRS (C. parvum) and at MetRS (T. brucei) was below 40 nM in each case.
`COc1ccc(-c2cccc3nc(Cc4nc5nc(Cl)ccc5[nH]4)oc23)c(Cl)c1` [Compound 2162, 2-({5-chloro-1H-imidazo[4,5-b]pyridin-2-yl}methyl)-7-(2-chloro-4-methoxyphenyl)-1,3-benzoxazole]: the IC50 on MetRS (C. parvum) is 90.4 nM; at MetRS (T. brucei) it was below 40 nM. Also, the half-maximal effective concentration (EC50) in the assay with T. brucei amounted to 175 nM.

Source of the values: patent US11584744B2 (UNIVERSITY OF WASHINGTON, priority 2017, dated 2023).
